Bounds are passed on as bounds.

Broadly, the DC50 is the concentration at which degradation of the target reaches its halfway point. Broadly, the IC50 is the midpoint of a concentration-inhibition curve. Lower therefore signals inhibition by little substance.

Experiment [1] concerns Cortical neuron. The experiment can be described thus: Induction of huntingtin polyQ mutant degradation in mouse primary cortical neuron. The following applies: dose 10.0 µM. It is filed as cell-based.
The nature of experiment [2]: Downregulation of extracellular oleic acid induced lipid droplets in MEF cells. It is filed as functional, Mus musculus.
The target of experiment [3] is T1, Methionine aminopeptidase 2 (Homo sapiens, UniProt P50579). Briefly: Induction of MetAP2 degradation in human HEK293 cells. The format is cell-based.
T1 sequence (P50579 whole entry): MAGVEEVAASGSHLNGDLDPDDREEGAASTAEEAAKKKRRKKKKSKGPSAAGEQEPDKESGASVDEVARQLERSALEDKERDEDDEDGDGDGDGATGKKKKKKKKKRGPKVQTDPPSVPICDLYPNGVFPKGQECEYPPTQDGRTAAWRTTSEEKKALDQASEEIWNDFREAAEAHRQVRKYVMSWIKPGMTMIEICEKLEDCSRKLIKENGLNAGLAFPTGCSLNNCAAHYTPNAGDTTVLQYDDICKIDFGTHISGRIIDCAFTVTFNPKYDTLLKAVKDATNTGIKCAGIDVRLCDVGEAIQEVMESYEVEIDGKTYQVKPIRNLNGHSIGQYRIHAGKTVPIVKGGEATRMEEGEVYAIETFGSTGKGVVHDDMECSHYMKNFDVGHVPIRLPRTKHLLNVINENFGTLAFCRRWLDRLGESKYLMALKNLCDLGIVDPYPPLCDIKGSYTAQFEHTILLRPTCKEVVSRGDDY
Experiment [4] deals with T1, Methionine aminopeptidase 2. Briefly: Induction of MetAP2 degradation in human U87MG cells. It is filed as cell-based. The following applies: u87mg human egfr viii.
For experiment [5], the target named is T2, Androgen receptor (Homo sapiens, UniProt P10275).
T2 sequence (P10275 whole entry): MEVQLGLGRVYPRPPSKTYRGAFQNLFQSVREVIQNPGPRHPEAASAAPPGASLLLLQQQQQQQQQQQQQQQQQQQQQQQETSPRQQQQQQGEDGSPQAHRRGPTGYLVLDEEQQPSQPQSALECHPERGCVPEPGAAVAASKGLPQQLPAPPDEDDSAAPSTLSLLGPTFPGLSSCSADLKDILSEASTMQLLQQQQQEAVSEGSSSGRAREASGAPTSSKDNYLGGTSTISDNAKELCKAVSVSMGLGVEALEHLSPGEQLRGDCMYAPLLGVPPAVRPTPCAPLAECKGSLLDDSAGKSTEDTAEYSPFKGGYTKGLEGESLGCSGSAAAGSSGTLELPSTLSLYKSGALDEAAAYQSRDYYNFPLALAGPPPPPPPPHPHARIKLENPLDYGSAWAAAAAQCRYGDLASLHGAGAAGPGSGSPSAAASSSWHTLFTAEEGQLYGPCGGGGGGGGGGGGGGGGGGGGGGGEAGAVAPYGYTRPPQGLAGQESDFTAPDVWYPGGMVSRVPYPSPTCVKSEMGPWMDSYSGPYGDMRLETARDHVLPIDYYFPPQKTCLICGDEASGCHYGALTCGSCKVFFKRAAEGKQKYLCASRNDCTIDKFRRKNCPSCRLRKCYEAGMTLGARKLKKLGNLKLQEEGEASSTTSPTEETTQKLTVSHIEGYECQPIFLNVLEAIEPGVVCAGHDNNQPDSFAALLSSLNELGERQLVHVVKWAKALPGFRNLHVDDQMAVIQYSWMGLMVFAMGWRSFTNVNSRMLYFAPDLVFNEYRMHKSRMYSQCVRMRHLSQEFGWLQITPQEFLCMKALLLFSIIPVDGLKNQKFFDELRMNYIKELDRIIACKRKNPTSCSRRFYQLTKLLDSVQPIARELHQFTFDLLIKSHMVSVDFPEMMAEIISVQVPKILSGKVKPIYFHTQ
Briefly: Induction of AR degradation in human LNCaP cells. The format is cell-based.

Experiment [6] deals with Sequestosome-1/Microtubule-associated protein tau (Homo sapiens, UniProt P10636+Q13501, P618L). The experiment can be described thus: Autotac activity at p62/tau P301L mutant in human SH-SY5Y cells assessed as tau P301L degradation. The format is cell-based.
Chain of Sequestosome-1/Microtubule-associated protein tau (P10636 2-758 P618L limits assumed, stated change not applied): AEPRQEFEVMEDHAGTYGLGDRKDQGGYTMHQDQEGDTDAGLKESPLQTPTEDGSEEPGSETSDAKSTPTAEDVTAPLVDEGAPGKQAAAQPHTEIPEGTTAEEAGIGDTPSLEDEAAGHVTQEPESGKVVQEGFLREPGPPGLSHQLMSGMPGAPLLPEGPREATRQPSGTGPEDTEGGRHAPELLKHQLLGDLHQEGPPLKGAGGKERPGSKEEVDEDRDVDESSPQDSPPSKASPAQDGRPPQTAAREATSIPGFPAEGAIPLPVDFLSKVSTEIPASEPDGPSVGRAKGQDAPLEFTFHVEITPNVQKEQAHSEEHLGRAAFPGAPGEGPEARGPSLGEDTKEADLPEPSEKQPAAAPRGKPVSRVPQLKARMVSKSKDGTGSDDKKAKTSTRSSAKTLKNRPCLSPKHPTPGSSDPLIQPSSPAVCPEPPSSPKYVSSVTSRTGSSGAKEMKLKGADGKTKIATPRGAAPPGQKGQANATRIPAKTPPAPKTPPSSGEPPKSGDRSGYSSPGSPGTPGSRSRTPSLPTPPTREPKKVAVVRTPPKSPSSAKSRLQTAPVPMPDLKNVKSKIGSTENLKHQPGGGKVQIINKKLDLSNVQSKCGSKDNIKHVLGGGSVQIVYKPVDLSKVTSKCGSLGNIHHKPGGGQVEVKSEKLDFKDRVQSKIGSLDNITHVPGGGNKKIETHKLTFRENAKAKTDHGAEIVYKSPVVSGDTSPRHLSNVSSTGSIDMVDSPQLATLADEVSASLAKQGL
Chain of Sequestosome-1/Microtubule-associated protein tau (Q13501 2-440 limits assumed, stated change not applied): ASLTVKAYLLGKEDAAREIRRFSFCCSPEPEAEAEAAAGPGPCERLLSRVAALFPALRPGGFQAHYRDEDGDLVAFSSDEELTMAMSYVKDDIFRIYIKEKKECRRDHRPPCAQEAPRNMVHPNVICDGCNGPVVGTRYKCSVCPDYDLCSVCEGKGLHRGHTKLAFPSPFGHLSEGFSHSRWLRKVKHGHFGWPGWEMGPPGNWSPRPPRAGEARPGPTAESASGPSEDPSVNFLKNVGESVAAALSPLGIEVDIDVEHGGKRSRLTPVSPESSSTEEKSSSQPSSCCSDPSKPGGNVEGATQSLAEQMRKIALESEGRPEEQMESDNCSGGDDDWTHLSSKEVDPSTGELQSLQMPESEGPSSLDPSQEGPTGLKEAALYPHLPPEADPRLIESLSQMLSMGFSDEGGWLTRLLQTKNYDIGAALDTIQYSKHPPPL
For experiment [7], the target named is T3, Nicotinamide phosphoribosyltransferase (Homo sapiens, UniProt P43490). Briefly: Induction of NAMPT degradation in human A2780 cells. The format is cell-based.
Target sequence in this assay (P43490 whole entry): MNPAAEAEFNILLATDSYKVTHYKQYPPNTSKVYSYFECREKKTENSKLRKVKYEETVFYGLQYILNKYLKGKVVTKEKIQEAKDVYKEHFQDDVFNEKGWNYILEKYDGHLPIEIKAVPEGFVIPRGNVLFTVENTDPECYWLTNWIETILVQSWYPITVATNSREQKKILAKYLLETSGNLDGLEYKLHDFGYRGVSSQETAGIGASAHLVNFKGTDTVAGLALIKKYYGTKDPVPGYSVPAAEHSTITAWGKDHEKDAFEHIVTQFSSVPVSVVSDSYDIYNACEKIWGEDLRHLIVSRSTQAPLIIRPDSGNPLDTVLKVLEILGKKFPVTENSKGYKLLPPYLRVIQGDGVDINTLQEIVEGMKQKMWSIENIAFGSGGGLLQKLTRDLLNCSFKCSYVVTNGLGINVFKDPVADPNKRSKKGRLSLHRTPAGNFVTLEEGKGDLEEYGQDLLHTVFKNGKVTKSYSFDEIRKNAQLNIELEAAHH
In experiment [8] the target is T3, Nicotinamide phosphoribosyltransferase. Briefly: Induction of NAMPT degradation in human A2780 cells at 3 uM relative to control. It is filed as cell-based.
Target sequence in this assay (P43490 whole entry, looked up): as the sequence (P43490 whole entry) above
Experiment [9] deals with T4, Sequestosome-1/Estrogen receptor beta (Homo sapiens, UniProt Q92731+Q13501). Briefly: Autotac activity at p62/ERbeta degradation in HEK293T cells. The format is cell-based.
T4 sequence (Q92731 whole entry): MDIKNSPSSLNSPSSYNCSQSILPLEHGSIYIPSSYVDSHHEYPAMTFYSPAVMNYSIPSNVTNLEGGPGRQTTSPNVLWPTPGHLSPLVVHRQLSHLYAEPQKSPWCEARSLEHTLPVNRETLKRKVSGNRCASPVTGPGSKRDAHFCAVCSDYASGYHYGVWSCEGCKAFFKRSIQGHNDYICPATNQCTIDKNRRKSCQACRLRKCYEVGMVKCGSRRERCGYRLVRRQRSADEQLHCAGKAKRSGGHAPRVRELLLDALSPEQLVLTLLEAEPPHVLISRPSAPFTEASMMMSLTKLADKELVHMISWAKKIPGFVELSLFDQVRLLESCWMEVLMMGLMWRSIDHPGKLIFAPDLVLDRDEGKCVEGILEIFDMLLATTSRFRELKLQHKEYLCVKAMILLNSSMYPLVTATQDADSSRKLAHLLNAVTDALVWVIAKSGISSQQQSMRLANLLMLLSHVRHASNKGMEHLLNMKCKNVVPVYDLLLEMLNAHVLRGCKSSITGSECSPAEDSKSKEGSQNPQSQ
T4 sequence (Q13501 whole entry): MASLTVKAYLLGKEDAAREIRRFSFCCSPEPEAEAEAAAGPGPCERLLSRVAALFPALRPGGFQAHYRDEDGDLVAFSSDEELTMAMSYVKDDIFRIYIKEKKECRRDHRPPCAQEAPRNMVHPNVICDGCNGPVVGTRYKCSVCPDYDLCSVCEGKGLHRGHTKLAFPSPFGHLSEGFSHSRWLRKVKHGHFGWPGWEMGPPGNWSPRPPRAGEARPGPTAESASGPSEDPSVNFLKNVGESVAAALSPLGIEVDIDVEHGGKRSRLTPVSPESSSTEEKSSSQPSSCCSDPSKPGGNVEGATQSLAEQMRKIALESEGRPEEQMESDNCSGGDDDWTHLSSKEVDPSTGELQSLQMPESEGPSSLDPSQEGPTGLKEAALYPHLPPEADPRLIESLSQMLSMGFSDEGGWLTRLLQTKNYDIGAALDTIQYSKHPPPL
Experiment [10] addresses T4, Sequestosome-1/Estrogen receptor beta. The experiment can be described thus: Autotac activity at p62/ERbeta degradation in human ACHN cells. The format is cell-based.
Experiment [11] shares this target. Briefly: Autotac activity at p62/ERbeta degradation in human MCF7 cells. The format is cell-based.
Experiment [12] has as its target T5, Estrogen receptor beta (Homo sapiens, UniProt Q92731). The experiment can be described thus: Induction of ERbeta degradation in human HEK293T cells. The format is cell-based.
The target in experiment [13] is T5, Estrogen receptor beta. The experiment can be described thus: Induction of ERbeta degradation in human ACHN cells. The format is cell-based.
For experiment [14], the target named is T5, Estrogen receptor beta. Briefly: Induction of ERbeta degradation in human MCF7 cells. It is filed as cell-based.
Experiment [15] deals with Bromodomain-containing protein 4 (Homo sapiens) (UniProt O60885). The experiment can be described thus: Induction of BRD4 degradation in human HeLa cells relative to control. It is filed as cell-based.
For experiment [16] the target is unchanged. The experiment can be described thus: Induction of BRD4 degradation in human MDA-MB-231 cells at 10 uM relative to control. It is filed as cell-based.
The nature of experiment [17]: Induction of huntingtin polyQ mutant degradation in human A 172 cells. The format is cell-based.

T5 sequence (Q92731 whole entry): as the sequence (Q92731 whole entry) above

In turn, `O=C1Nc2ccc(Br)cc2/C1=C/c1cc(O)c(O)c(Br)c1` yielded an ED in experiment [1] of 50 nM.

Take `Cc1ccccc1/N=N/c1ccc(/N=N/c2c(OCCCCCCCCCCN3C(=O)/C(=C\c4cc(Br)c(O)c(Br)c4)c4cc(I)ccc43)ccc3ccccc23)c(C)c1`: in [2], the ED stood at 5 µM. Same read-out and setting: the value for `Cc1ccccc1/N=N/c1ccc(/N=N/c2c(OCCCCCCCCCCOc3cc(O)cc4oc(=O)cc(-c5ccccc5)c34)ccc3ccccc23)c(C)c1` was 5 µM. As to `COC1C(OC(=O)/C=C/C=C/C=C/C=C/C(=O)NCCOCCOCCNCc2cccc(OCc3ccccc3)c2)CCC2(CO2)C1C1(C)OC1CC=C(C)C` (centres undefined), the DC50 in experiment [3] is 700 nM; in experiment [4], 500 nM. `C=CC(C)(O)C(=O)N(C(=O)NCCOCCOCCNC[C@@H](O)COc1ccc(OCCc2ccccc2)c(OCCCc2ccccc2)c1)c1cc(Cl)cc(Cl)c1` (some centres undefined): it took 200 nM to reach half-maximal degradation in [5] (DC50). In the case of `O=C(CCCc1ccccc1)NCCOCCOCCOCCNCc1ccc(OCc2ccccc2)c(OCc2ccccc2)c1`, in [6], the DC50 stood at 1 nM. Compound `Cc1ccc(C(=O)N(CCCNC(=O)CCCCCCCCN2CCN(S(=O)(=O)c3ccc(NC(=S)NCc4cccnc4)cc3)CC2)[C@@H](c2nc3cc(Cl)ccc3c(=O)n2Cc2ccccc2)C(C)C)cc1` gave an IC50 in experiment [7] of 40 nM. In [8], this compound showed an Activity of 91%. In the case of `O[C@H](CNCCOCCOCCOc1ccc(-c2c(-c3ccccc3)nn3c(C(F)(F)F)cc(C(F)(F)F)nc23)cc1)COc1ccc(OCc2ccccc2)c(OCCCc2ccccc2)c1`, the DC50 was 2 nM in experiment [9]; under 100 nM in experiment [10]; under 100 nM in experiment [11]; 2 nM in experiment [12]; under 100 nM in [13]; under 100 nM in experiment [14]. As to `CC1=C(C)C2C(c3ccc(Cl)cc3)=N[C@@H](CC(=O)NCCCOCCOCCOCCCNC(=O)COc3c(Br)cc(/C=C4\C(=O)Nc5ccc(I)cc54)cc3Br)c3nnc(C)n3C2S1` (some centres undefined), the values for the Activity in experiment [15] and in experiment [16] were 92% and 99%, respectively.

In [17], H-GIYVIWGPITERKKRRKG-NH2 yielded an IC50 of 57.2 nM. This lies in the double-digit nanomolar range. In experiment [1], `O=c1cc(-c2ccccc2)c2c(O)cc(O)cc2o1` yielded an ED of 75 nM.

These data come from ChEMBL document CHEMBL5380785, “Application of Novel Degraders Employing Autophagy for Expediting Medicinal Research” (J Med Chem, 2023).
